From ChEMBL document CHEMBL1949542, “Reductive activation of 5-fluorodeoxyuridine prodrug possessing azide methyl group by hypoxic X-irradiation” (Bioorg Med Chem Lett, 2012)
pIC50: −log10 of the molar value. Calls of active or inactive are those of the source. No cut-off for these calls is given here.

Tests used:
Assay type in all cases: functional, cell-based
A549 [1] = experiment: Cytotoxicity against human A549 cells assessed as cell viability after 72 hrs by WST-8 assay; details: A549, 72 h
A549 [2] = experiment: Cytocidal activity against human A549 cells assessed as cell viability at 200 nM compound X-irradiated under hypoxic conditions measured after 72 hrs by WST-8 assay
A549 [3] = experiment: Cytotoxicity against human A549 cells assessed as cell viability under hypoxic condition at 100 nM after 72 hrs by WST-8 assay
A549 [4] = experiment: Cytotoxicity against human A549 cells assessed as cell viability at 200 nM compound X-irradiated under aerobic conditions measured after 72 hrs by WST-8 assay

SMILES | pIC50 (A549 [1]) | Activity (A549 [2]) | Activity (A549 [3]) | Activity (A549 [4])
O=c1[nH]c(=O)n([C@H]2C[C@H](O)[C@@H](CO)O2)cc1F [FLOXURIDINE] | 7.33 | – | – | –
[N-]=[N+]=NCn1c(=O)c(F)cn([C@H]2C[C@H](O)[C@@H](CO)O2)c1=O | 5.83 | inactive | inactive | inactive
